In ChEMBL document CHEMBL1201861, “Genomics of Drug Sensitity in Cancer screening data, Wellcome Trust Sanger Institute”:

Columns and labels:
Assay in all cases: cells
[1] = tested on: ASPC1; format: functional, cell-based, Homo sapiens; conditions: Homo sapiens, ASPC1;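 further: growth inhibition of AsPC-1 cells, read out with a cell viability assay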
Description: SANGER: Inhibition of human AsPC-1 cell growth in a cell viability assay.

[2] = tested on: TE-12; format: functional, cell-based; conditions: Homo sapiens;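 further: growth inhibition of TE-12 cells, read out by a cell viability assay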
Description: SANGER: Inhibition of human TE-12 cell growth in a cell viability assay.

[3] = tested on: NCI-H1623; format: functional, cell-based, Homo sapiens; conditions: Homo sapiens, NCI-H1623;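 further: cell viability assay used as the read-out for growth inhibition of NCI-H1623 cells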
Description: SANGER: Inhibition of human NCI-H1623 cell growth in a cell viability assay.

[4] = tested on: KALS-1; format: functional, cell-based, Homo sapiens; conditions: Homo sapiens, KALS-1;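 further: growth inhibition of KALS-1 cells, determined with a cell viability assay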
Description: SANGER: Inhibition of human KALS-1 cell growth in a cell viability assay.

[5] = tested on: NCI-H2126; format: functional, cell-based, Homo sapiens; conditions: Homo sapiens, NCI-H2126;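 further: growth inhibition of the cancer cell line, determined with a cell viability readout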
Description: SANGER: Inhibition of human NCI-H2126 cell growth in a cell viability assay.

[6] = tested on: Ca-Ski; format: functional, cell-based; conditions: Homo sapiens;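 further: cell viability assay measuring inhibition of Ca-Ski cell growth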
Description: SANGER: Inhibition of human Ca-Ski cell growth in a cell viability assay.

[7] = tested on: DB; format: functional, cell-based; conditions: Homo sapiens
Description: SANGER: Inhibition of human DB cell growth in a cell viability assay.

[8] = tested on: NCI-H747; format: functional, cell-based; conditions: Homo sapiens;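 further: growth inhibition of human NCI-H747 cells, read out by a cell viability assay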
Description: SANGER: Inhibition of human NCI-H747 cell growth in a cell viability assay.

[9] = tested on: TYK-nu; format: functional, cell-based, Homo sapiens; conditions: Homo sapiens, TYK-nu;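 further: growth inhibition of human TYK-nu cells, read out by a cell viability assay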
Description: SANGER: Inhibition of human TYK-nu cell growth in a cell viability assay.

[10] = tested on: FTC-133; format: functional, cell-based, Homo sapiens; conditions: Homo sapiens, FTC-133
[11] = tested on: A204; format: functional, cell-based, Homo sapiens; conditions: Homo sapiens, A204;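 further: growth inhibition of human A204 cells, read out with a cell viability assay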
Description: SANGER: Inhibition of human A204 cell growth in a cell viability assay.

[12] = tested on: D-392MG; format: functional, cell-based, Homo sapiens; conditions: Homo sapiens, D-392MG
[13] = tested on: NCI-H2030; format: functional, cell-based, Homo sapiens; conditions: Homo sapiens, NCI-H2030;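 further: growth inhibition of human NCI-H2030 cells, read out by a cell viability assay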
Description: SANGER: Inhibition of human NCI-H2030 cell growth in a cell viability assay.

[14] = tested on: TGBC24TKB; format: functional, cell-based, Homo sapiens; conditions: Homo sapiens, TGBC24TKB;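 further: growth inhibition of human TGBC24TKB cells, read out with a cell viability assay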
Description: SANGER: Inhibition of human TGBC24TKB cell growth in a cell viability assay.

[15] = tested on: K5; format: functional, cell-based, Homo sapiens; conditions: Homo sapiens, K5
Description: SANGER: Inhibition of human K5 cell growth in a cell viability assay.

[16] = tested on: Detroit 562; format: functional, cell-based, Homo sapiens; conditions: Homo sapiens, Detroit 562;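 further: growth inhibition of human Detroit 562 cells, read out by a cell viability assay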
Description: SANGER: Inhibition of human Detroit562 cell growth in a cell viability assay.

[17] = tested on: TGBC1TKB; format: functional, cell-based, Homo sapiens; conditions: Homo sapiens, TGBC1TKB;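 further: growth inhibition of TGBC1TKB cells, read out by a cell viability assay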
Description: SANGER: Inhibition of human TGBC1TKB cell growth in a cell viability assay.

[18] = tested on: LB2241-RCC; format: functional, cell-based, Homo sapiens; conditions: Homo sapiens, LB2241-RCC;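 further: cell viability assay measuring how strongly the cultured human renal carcinoma line is prevented from growing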
Description: SANGER: Inhibition of human LB2241-RCC cell growth in a cell viability assay.

[19] = tested on: SCC-25; format: functional, cell-based, Homo sapiens; conditions: Homo sapiens, SCC-25;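 further: growth inhibition of SCC-25 cells, measured with a cell viability assay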
Description: SANGER: Inhibition of human SCC-25 cell growth in a cell viability assay.

[20] = tested on: ES4; format: functional, cell-based, Homo sapiens; conditions: Homo sapiens, ES4;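 further: growth inhibition of human ES4 cells, read out by a cell viability assay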
Description: SANGER: Inhibition of human ES4 cell growth in a cell viability assay.

[21] = tested on: SK-MEL-28; format: functional, cell-based; conditions: Homo sapiens;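 further: growth inhibition of human SK-MEL-28 cells, read out with a cell viability assay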
Description: SANGER: Inhibition of human SK-MEL-28 cell growth in a cell viability assay.

[22] = tested on: M059J; format: functional, cell-based, Homo sapiens; conditions: Homo sapiens, M059J;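 further: growth inhibition of M059J cells, read out with a cell viability assay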
Description: SANGER: Inhibition of human M059J cell growth in a cell viability assay.

[23] = tested on: HTC-C3; format: functional, cell-based, Homo sapiens; conditions: Homo sapiens, HTC-C3;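 further: inhibition of cell growth, read out with a cell viability assay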
Description: SANGER: Inhibition of human HTC-C3 cell growth in a cell viability assay.

[24] = tested on: IA-LM; format: functional, cell-based, Homo sapiens; conditions: Homo sapiens, IA-LM;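 further: cell viability assay measuring growth inhibition of human IA-LM cells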
Description: SANGER: Inhibition of human IA-LM cell growth in a cell viability assay.

[25] = tested on: KYSE-510; format: functional, cell-based, Homo sapiens; conditions: Homo sapiens, KYSE-510;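 further: cell viability readout used to measure how strongly growth of the cell line is suppressed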
Description: SANGER: Inhibition of human KYSE-510 cell growth in a cell viability assay.

[26] = tested on: A4-Fuk; format: functional, cell-based; conditions: Homo sapiens;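 further: growth inhibition of A4-Fuk cells, read out by a cell viability assay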
Description: SANGER: Inhibition of human A4-Fuk cell growth in a cell viability assay.

[27] = tested on: MHH-ES-1; format: functional, cell-based, Homo sapiens; conditions: Homo sapiens, MHH-ES-1;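 further: cell growth inhibition measured by a cell viability assay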
Description: SANGER: Inhibition of human MHH-ES-1 cell growth in a cell viability assay.

[28] = tested on: HCC1419; format: functional, cell-based, Homo sapiens; conditions: Homo sapiens, HCC1419;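 further: growth inhibition of human HCC1419 cells, read out as cell viability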
Description: SANGER: Inhibition of human HCC1419 cell growth in a cell viability assay.

[29] = tested on: CAL-51; format: functional, cell-based, Homo sapiens; conditions: Homo sapiens, CAL-51;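 further: human CAL-51 cell line, growth inhibition read out via a cell viability assay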
Description: SANGER: Inhibition of human CAL-51 cell growth in a cell viability assay.

[30] = tested on: SCH; format: functional, cell-based, Homo sapiens; conditions: Homo sapiens, SCH;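 further: growth inhibition of human SCH cells, read out in a cell viability assay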
Description: SANGER: Inhibition of human SCH cell growth in a cell viability assay.

[31] = tested on: KYSE-450; format: functional, cell-based; conditions: Homo sapiens;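 further: cell growth inhibition measured by a viability assay in human KYSE-450 cells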
Description: SANGER: Inhibition of human KYSE-450 cell growth in a cell viability assay.

[32] = tested on: Lu-65; format: functional, cell-based; conditions: Homo sapiens;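 further: growth inhibition of Lu-65 cancer cells, read out by a cell viability assay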
Description: SANGER: Inhibition of human LU-65 cell growth in a cell viability assay.

[33] = tested on: PFSK-1; format: functional, cell-based, Homo sapiens; conditions: Homo sapiens, PFSK-1;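 further: cell viability assay measuring how strongly compounds suppress growth of human PFSK-1 cells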
Description: SANGER: Inhibition of human PFSK-1 cell growth in a cell viability assay.

[34] = tested on: SNU-387; format: functional, cell-based, Homo sapiens; conditions: Homo sapiens, SNU-387
Description: SANGER: Inhibition of human SNU-387 cell growth in a cell viability assay.

[35] = tested on: GCT; format: functional, cell-based, Homo sapiens; conditions: Homo sapiens, GCT;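 further: GCT cell line proliferation inhibition, read out with a cell viability assay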
Description: SANGER: Inhibition of human GCT cell growth in a cell viability assay.

[36] = tested on: DoTc2-4510; format: functional, cell-based, Homo sapiens; conditions: Homo sapiens, DoTc2-4510
[37] = tested on: SW982; format: functional, cell-based; conditions: Homo sapiens;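 further: growth inhibition of SW982 cells, read out with a cell viability assay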
Description: SANGER: Inhibition of human SW982 cell growth in a cell viability assay.

[38] = tested on: KYSE-270; format: functional, cell-based, Homo sapiens; conditions: Homo sapiens, KYSE-270;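 further: cell growth inhibition measured with a viability assay in the human KYSE-270 line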
Description: SANGER: Inhibition of human KYSE-270 cell growth in a cell viability assay.

[39] = tested on: CAL-12T; format: functional, cell-based, Homo sapiens; conditions: Homo sapiens, CAL-12T;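 further: growth inhibition of human CAL-12T cells, read out with a cell viability assay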
Description: SANGER: Inhibition of human CAL-12T cell growth in a cell viability assay.

[40] = tested on: LU-139; format: functional, cell-based; conditions: Homo sapiens
Description: SANGER: Inhibition of human LU-139 cell growth in a cell viability assay.

[41] = tested on: RT-112; format: functional, cell-based, Homo sapiens; conditions: Homo sapiens, RT-112
Description: SANGER: Inhibition of human RT-112 cell growth in a cell viability assay.

[42] = tested on: HT; format: functional, cell-based; conditions: Homo sapiens
Description: SANGER: Inhibition of human HT cell growth in a cell viability assay.

[43] = tested on: LXF-289 cell line; format: functional, cell-based, Homo sapiens; conditions: Homo sapiens, LXF-289
Description: SANGER: Inhibition of human LXF-289 cell growth in a cell viability assay.

[44] = tested on: PANC-08-13; format: functional, cell-based, Homo sapiens; conditions: Homo sapiens, PANC-08-13;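 further: cell growth inhibition, measured with a cell viability assay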
Description: SANGER: Inhibition of human PANC-08-13 cell growth in a cell viability assay.

[45] = tested on: MKN-1; format: functional, cell-based, Homo sapiens; conditions: Homo sapiens, MKN-1;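 further: growth inhibition of human MKN1 cells, read out by a cell viability measurement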
Description: SANGER: Inhibition of human MKN1 cell growth in a cell viability assay.

[46] = tested on: SW13; format: functional, cell-based, Homo sapiens; conditions: Homo sapiens, SW13;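 further: IC50 is inhibition of SW13 cell growth, read out with a cell viability assay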
Description: SANGER: Inhibition of human SW13 cell growth in a cell viability assay.

[47] = tested on: ATN-1; format: functional, cell-based; conditions: Homo sapiens;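 further: growth inhibition of human ATN-1 cells, read out with a cell viability assay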
Description: SANGER: Inhibition of human ATN-1 cell growth in a cell viability assay.

[48] = tested on: MFE-280; format: functional, cell-based, Homo sapiens; conditions: Homo sapiens, MFE-280;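 further: growth inhibition of MFE-280 cells, determined with a cell viability readout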
Description: SANGER: Inhibition of human MFE-280 cell growth in a cell viability assay.

[49] = tested on: NCI-H526; format: functional, cell-based; conditions: Homo sapiens;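 further: growth inhibition of the human NCI-H526 cell line, measured by a cell viability assay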
Description: SANGER: Inhibition of human NCI-H526 cell growth in a cell viability assay.

[50] = tested on: LNCaP-Clone-FGC; format: functional, cell-based, Homo sapiens; conditions: Homo sapiens, LNCaP-Clone-FGC
Description: SANGER: Inhibition of human LNCaP-Clone-FGC cell growth in a cell viability assay.

SMILES: COc1ccc(C2=N[C@@H](c3ccc(Cl)cc3)[C@@H](c3ccc(Cl)cc3)N2C(=O)N2CCNC(=O)C2)c(OC(C)C)c1 [NUTLIN-3]
- IC50 [1]: > 8000 nM
- IC50 [2]: > 8000 nM
- IC50 [3]: > 8000 nM
- IC50 [4]: > 8000 nM
- IC50 [5]: > 8000 nM
- IC50 [6]: > 8000 nM
- IC50 [7]: > 8000 nM
- IC50 [8]: > 8000 nM
- IC50 [9]: > 8000 nM
- IC50 [10]: > 8000 nM
- IC50 [11]: 3060 nM
- IC50 [12]: > 8000 nM
- IC50 [13]: > 8000 nM
- IC50 [14]: > 8000 nM
- IC50 [15]: 1420 nM
- IC50 [16]: > 8000 nM
- IC50 [17]: > 8000 nM
- IC50 [18]: 3660 nM
- IC50 [19]: > 8000 nM
- IC50 [20]: 2430 nM
- IC50 [21]: > 8000 nM
- IC50 [22]: > 8000 nM
- IC50 [23]: > 8000 nM
- IC50 [24]: > 8000 nM
- IC50 [25]: > 8000 nM
- IC50 [26]: > 8000 nM
- IC50 [27]: > 8000 nM
- IC50 [28]: > 8000 nM
- IC50 [29]: > 8000 nM
- IC50 [30]: > 8000 nM
- IC50 [31]: > 8000 nM
- IC50 [32]: > 8000 nM
- IC50 [33]: > 8000 nM
- IC50 [34]: > 8000 nM
- IC50 [35]: > 8000 nM
- IC50 [36]: > 8000 nM
- IC50 [37]: 3510 nM
- IC50 [38]: > 8000 nM
- IC50 [39]: > 8000 nM
- IC50 [40]: > 8000 nM
- IC50 [41]: > 8000 nM
- IC50 [42]: > 8000 nM
- IC50 [43]: > 8000 nM
- IC50 [44]: > 8000 nM
- IC50 [45]: > 8000 nM
- IC50 [46]: > 8000 nM
- IC50 [47]: > 8000 nM
- IC50 [48]: > 8000 nM
- IC50 [49]: > 8000 nM
- IC50 [50]: 2640 nM

SMILES: C=CCNC1=C2C[C@@H](C)C[C@H](OC)[C@H](O)[C@@H](C)/C=C(\C)[C@H](OC(N)=O)[C@@H](OC)/C=C\C=C(/C)C(=O)NC(=CC1=O)C2=O [TANESPIMYCIN]
- IC50 [1]: 152 nM
- IC50 [2]: > 1000 nM
- IC50 [3]: > 1000 nM
- IC50 [4]: 114 nM
- IC50 [5]: 568 nM
- IC50 [6]: 267 nM
- IC50 [7]: > 1000 nM
- IC50 [8]: 242 nM
- IC50 [9]: 39.9 nM
- IC50 [10]: 165 nM
- IC50 [11]: 22.5 nM
- IC50 [12]: 894 nM
- IC50 [13]: 54.1 nM
- IC50 [14]: > 1000 nM
- IC50 [15]: 244 nM
- IC50 [16]: 42.4 nM
- IC50 [17]: 80.4 nM
- IC50 [18]: 101 nM
- IC50 [19]: 246 nM
- IC50 [20]: > 1000 nM
- IC50 [21]: 113 nM
- IC50 [22]: 90.3 nM
- IC50 [23]: 265 nM
- IC50 [24]: > 1000 nM
- IC50 [25]: 46.5 nM
- IC50 [26]: > 1000 nM
- IC50 [27]: 237 nM
- IC50 [28]: 146 nM
- IC50 [29]: 14 nM
- IC50 [30]: > 1000 nM
- IC50 [31]: 986 nM
- IC50 [32]: 926 nM
- IC50 [33]: > 1000 nM
- IC50 [34]: > 1000 nM
- IC50 [35]: > 1000 nM
- IC50 [36]: 208 nM
- IC50 [37]: 30 nM
- IC50 [38]: 231 nM
- IC50 [39]: 428 nM
- IC50 [40]: > 1000 nM
- IC50 [41]: 140 nM
- IC50 [42]: > 1000 nM
- IC50 [43]: 4.19 nM
- IC50 [44]: 532 nM
- IC50 [45]: 588 nM
- IC50 [46]: > 1000 nM
- IC50 [47]: > 1000 nM
- IC50 [48]: 213 nM
- IC50 [49]: > 1000 nM
- IC50 [50]: 800 nM
